# Measurements as given in patent publication US20210228515A1, “BENZOIC ACID OR A SALT AND DERIVATIVE THEREOF FOR USE IN PREVENTING OR TREATING ANTI-N-METHYL-D-ASPARTATE RECEPTOR ENCEPHALITIS” (EXCELSIOR PHARMATECH LABS, priority 2018, published 2021).
# Test: Case treatment of a patient with confirmed anti-NMDAR encephalitis
# Format: in vivo
# Details: for response to antipsychotics: high doses: aripiprazole 20-30 mg, clozapine 300-500 mg, clozapine 500 mg plus paliperidone 9 mg, before the diagnosis was confirmed
Structure (SMILES),"clinical improvement (sodium benzoate 1000 mg per day for 2 months, patient able to return to a normal life)","psychotic symptoms including dissociation and agitation (sodium benzoate 1000 mg per day for 2 months, patient refractory to antipsychotics, ECT and immunotherapy)",response to antipsychotics
"O=C([O-])c1ccccc1.[Na+] [Sodium benzoate, sodium benzoate]",obvious clinical improvement,reduced,–
O=C1CCc2ccc(OCCCCN3CCN(c4cccc(Cl)c4Cl)CC3)cc2N1 [aripiprazole],–,–,very poor response
Cc1nc2n(c(=O)c1CCN1CCC(c3noc4cc(F)ccc34)CC1)CCCC2O (stereo not shown) [paliperidone],–,–,very poor response
